From ChEMBL document CHEMBL1147251, “Crambescidin 826 and dehydrocrambine A: new polycyclic guanidine alkaloids from the marine sponge Monanchora sp. that inhibit HIV-1 fusion” (J Nat Prod, 2003)
Calls of active or inactive are those of the source. No cut-off for these calls is given here.

Experiments:
NIH3T3 [1] = assay: Inhibition of HIV1 SF162 gp120 binding to CD4 assessed as inhibition of CD4 expressing african green monkey BSC1 cells fusion to CCR5 expressing mouse NIH3T3 cells treated after 15 to 90 mins of fusion measured after 2.5 hrs by beta-galactosidase assay; type: cell-based; details: Human immunodeficiency virus 1
NIH3T3 [2] = assay: Inhibition of HIV1 LAV gp120 binding to CD4 assessed as inhibition of CD4 expressing african green monkey BSC1 cells fusion to CXCR4 expressing mouse NIH3T3 cells treated after 15 to 90 mins of fusion measured after 2.5 hrs by beta-galactosidase assay; type: cell-based; details: Human immunodeficiency virus 1
[3] = Inhibition of HIV1 LAV gp120 binding to CD4 assessed as inhibition of CD4 expressing african green monkey BSC1 cells fusion to CXCR4 expressing mouse NIH3T3 cells after 2.5 hrs by beta-galactosidase assay; type: cell-based, Human immunodeficiency virus 1
[4] = Inhibition of HIV1 SF162 gp120 binding to CD4 assessed as inhibition of CD4 expressing african green monkey BSC1 cells fusion to CCR5 expressing mouse NIH3T3 cells after 2.5 hrs by beta-galactosidase assay; type: cell-based, Human immunodeficiency virus 1

SMILES	Activity (NIH3T3 [1])	Activity (NIH3T3 [2])	IC50 [3] [nM]	IC50 [4] [nM]
CC[C@H]1CCCC[C@@]2(C[C@@H]3CC[C@@H]4[C@H](C(=O)OCCCCCCCCCCCCCCCC(=O)N(CCCN)C[C@@H](O)CCN)[C@]5(CCC[C@@H](C)O5)N=C(N2)N34)O1 [CRAMBESCIDIN 800]	inactive	inactive	1000	1000
CC[C@H]1C=CCC[C@@]2(C[C@@H]3CC[C@@H]4[C@H](C(=O)OCCCCCCCCCCCCCCCCCC(=O)N(CCCN)CCCC(N)=O)[C@]5(CCC[C@@H](C)O5)N=C(N2)N34)O1 [CRAMBESCIDIN 826]	–	–	1000	1000
CCCCCCCCCCCc1nc(=N)n2c(c1C(=O)OCCCCNC(=N)N)CCC2 [DEHYDROCRAMBINE A]	–	–	35000	35000
CC[C@H]1C=CCC[C@@]2(C[C@@H]3CC[C@@H]4[C@H](C(=O)OCCCCCCCCCCCCCCCC5=NCCCN5CC(O)CCN)[C@]5(CCC[C@@H](C)O5)N=C(N2)N34)O1 (stereo not given in full) [FROMIAMYCALIN]	–	–	1000	1000
